Holding throughout (type): cell-based
The subject of one test is S. aureus 27660. The experiment in a line: Bacterial MIC, broth microdilution, CLSI. The following applies: Staphylococcus aureus; S. aureus 27660. The essentials: (§1)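 MICs by broth microdilution under standard CLSI conditions against E. coli 25922, S. aureus 27660, E. faecalis 29212, P. aeruginosa 10145 and K. pneumoniae 13883.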
A general note: In broth dilution the organism is exposed to a series of concentrations in liquid medium.

The subject of a further test is K. pneumoniae 13883. Kind of test: Bacterial MIC, broth microdilution, CLSI. Particulars: Klebsiella pneumoniae. The essentials:
as §1

In another test the test system is E. faecalis 29212. The experiment in a line: Bacterial MIC, broth microdilution, CLSI. Particulars: Enterococcus faecalis; E. faecalis 29212. The essentials: as §1
The subject of a further test is E. coli 25922. The experiment in a line: Bacterial MIC, broth microdilution, CLSI. Particulars: Escherichia coli; E. coli 25922. An outline of the steps:
as §1

The test system of the next test is P. aeruginosa 10145. Kind of test: Bacterial MIC, broth microdilution, CLSI. Particulars: Pseudomonas aeruginosa; P. aeruginosa 10145. The essentials: as §1
For test [1], the system named is C. albicans GDH2346 hyphal biofilm. The experiment in a line: Candida IC50 in the hyphal state / hyphal biofilm, MTS viability assay. Particulars: Candida albicans. As to the method:
Candida IC50s were determined by OD600 and fluorescence from vegetative cells and by MTS viability assay in the hyphal state. MICs were determined using a broth microdilution assay under standard CLSI conditions Bacteria strains: E. coli 25922 (EC), S. aureus 27660 (SA), E. faecalis 29212 (EF), P. aeruginosa 10145 (PA), and K. pneumoniae 13883 (KP). Cytotoxicity (EC50) was determined against mouse 3T3 fibroblasts, human transformed liver HepG2 cells, and human oral keratinocyte cell line, OKF6/TERT using an MTS viability assay. Candida IC50s<10 μg/mL, MICs<5 μg/mL and cytotoxicity EC50s>100 μM are indicated in green. MICs>5 μg/mL and cytotoxicity EC50s<100 μM are indicated in red. To form the biofilm, yeast were grown in RPMI/MOPS, 0.4% sucrose pH7.4 media supplemented with 10% FBS in tissue culture-treated flat bottom 96 well plates for 48 hours. The filamentous yeast cultures were then vigorously washed to remove any non-filamentous, non-attached yeast. The remaining attached filamentous biofilm yeast were incubated in saline containing serially diluted compounds for 24 hours. The cultures were aspirated to remove compound, rinsed and overlayed with RPMI/MOPS, 0.4% sucrose pH7.4 media. Biofilm viability was measured using a cell proliferation assay (CellTiter96 Aqueous Kit from Promega) and IC50s were determined using Prism GraphPad software (nonlinear fit, Table 3).
In general terms: Tetrazolium dyes change colour on reduction, which living cells bring about.

Test [2] deals with C. albicans GDH2346. Kind of test: Time kill. Particulars: FIGS. 6A and 6B. Here is the method: Time kills were performed in the same manner as IC50s. At each time point yeast were removed, diluted as necessary and plated on YPD agar to determine viable CFUs.
The test system of a further test is A. flavus (NRRL3357). Kind of test: Anti-Aspergillus screen, CLSI M38-A, visual inhibition of growth. The following applies: screening concentration 10 μM, 24-48 hours. Here is the method: (§2) The in vitro efficacy of a library of compounds was assessed for antifungal activity against A. niger (AN1), A. fumigatus ([…]) and A. flavus (NRRL3357) and compared to that of Itraconazole. For a subset of compounds selected based upon efficacy in the screening study a full MIC profile was conducted. Efficacy of test articles was determined in RPMI 1640 broth with MOPS buffered to pH7.2 in accordance with CLSI guidelines M38-A for Antifungal Susceptibility Testing of Filamentous Fungi. The method was modified by using flat well plates to allow microscopic identification of growth. The final screening concentration of each test article was 10 μM. Assay plates were incubated aerobically at 37° C. for 24-48 hours. Following incubation, plates were assessed visually (by eye and microscopically) for inhibition of growth. Inhibition was recorded at 50%, 80% and 100% inhibition compared to the positive control.

Another test concerns A. fumigatus (A1163). Described as above. Particulars: screening concentration 10 μM, 24-48 hours. Here is the method: as §2
A further test concerns A. niger (AN1). Described as above. Particulars: screening concentration 10 μM, 24-48 hours. As to the method: as §2
Test [3] deals with C. albicans GDH2346. Kind of test: Cellular efflux, ATP release by luciferase assay. Here is the method:
(A) C. albicans GDH2346 was treated with either Compound 100 or histatin 5 for 30 minutes, followed by the separation of the extracellular medium and the cells. Intracellular and extracellular ATP levels were quantified by luciferase assay and measurement in a luminometer, relative to a standard control. Treatment 1=no treatment; Treatment 2=16 μg/mL Compound 100; Treatment 3=32 μg/mL Compound 100; and Treatment 4=Histatin 5 (1 mg/mL). (B) Time dependent release of ATP of cells treated with Compound 100 at 32 μg/mL. (C) Dose response of cells treated for 30 minutes, followed by quantification of extracellular ATP.

Test [4] deals with C. albicans GDH2346. The experiment in a line: Membrane permeabilization, PI staining and flow cytometry. The following applies: 32 μg/mL, 5-minute treatment. Here is the method: (A) C. albicans GDH2346 was treated with Compound 100 at the concentrations indicated ([…]) for 30 minutes, followed by staining with PI and quantification by flow cytometry. Ethanol treatment was used to establish 100% uptake. (B) Cells were treated with Compound 100 at 32 μg/mL for the times indicated. To determine whether the compounds act at the membrane, like many host defense proteins, or intracellularly like histatins, the ability of Compound 100 to cause membrane permeability was assessed. Dose-dependent membrane permeabilization of Candida, as shown by cellular accumulation of PI, was evident within 30 minutes at 8 to 32 μg/mL Compound 100 concentrations (see FIG. 3A). Influx was rapid, where >75% of cells were permeabilized after a 5-minute treatment with Compound 100 at 32 μg/mL (see FIG. 3B).
A general note: In flow cytometry, cells or beads pass a laser one at a time.

The mark [5] stands for this setting: 48 h, 2-day hyphal biofilm cultures, read-out: Anti-C. albicans GDH2346 Hyphal (IC50).
[6] abbreviates: hyphal state, read-out: IC50 Candida, Hyphal.

Values after ≈ are worked out from the molar mass of the structure shown. Like-named read-outs stand apart in the source and are kept apart here.

Regarding `NCCCOc1cc(OCCCN)cc(-c2ccc3c(c2)c2cc(-c4cc(OCCCN)cc(OCCCN)c4)ccc2n3CCCN)c1` [Compound 135], the EC50 (usually the concentration at which the effect is half-maximal) was 12.5 µg/mL (≈ 18.7 µM) in the test with S. aureus 27660; 12.5 µg/mL (≈ 18.7 µM) in the test with K. pneumoniae 13883; 12.5 µg/mL (≈ 18.7 µM) with E. faecalis 29212; 6.25 µg/mL (≈ 9.34 µM) in the test with E. coli 25922; more than 50 µg/mL with P. aeruginosa 10145. In addition, the IC50 in test [1] (setting [5]) and in test [1] (setting [6]) was 2.68 µg/mL (≈ 4.01 µM) each time. Also, the killing kinetics entry in the test on C. albicans GDH2346 [2] is “cidal activity with rapid killing kinetics”.

With `N=C(N)N1CCN(c2ccc(-c3cc(-c4ccc(N5CCN(C(=N)N)CC5)cc4)ncn3)cc2)CC1` [Compound 136], the EC50 was 0.39 µg/mL (≈ 0.805 µM) in the test on S. aureus 27660; 50 µg/mL (≈ 103 µM) in the test on K. pneumoniae 13883; 0.098 µg/mL (≈ 0.202 µM) in the test on E. faecalis 29212; more than 50 µg/mL in the test on E. coli 25922; 50 µg/mL (≈ 103 µM) with P. aeruginosa 10145. In addition, the 50% inhibitory concentration (IC50) in [1] (setting [5]) and in test [1] (setting [6]) was 0.71 µg/mL (≈ 1.47 µM) in each case. Also, the inhibition at 10 µM with A. flavus (NRRL3357), in the test with A. fumigatus (A1163) and in the test on A. niger (AN1) was 100% in each case.

In the case of `NCCSc1cc(SCCN)c(C(F)(F)F)cc1NC(=O)c1cc(C(=O)Nc2cc(C(F)(F)F)c(SCCN)cc2SCCN)ncn1` [Compound 100], the EC50 with S. aureus 27660 came to 0.78 µg/mL (≈ 1.03 µM); with K. pneumoniae 13883 it was 1.56 µg/mL (≈ 2.07 µM); in the test with E. faecalis 29212 it was 0.78 µg/mL (≈ 1.03 µM); in the test with E. coli 25922, 1.56 µg/mL (≈ 2.07 µM); in the test with P. aeruginosa 10145 it was 3.13 µg/mL (≈ 4.15 µM). For the same compound, the IC50 in [1] (setting [5]) and in test [1] (setting [6]) was 4.9 µg/mL (≈ 6.49 µM) in each case. The “time to significant extracellular ATP accumulation” value in the test with C. albicans GDH2346 [3] (32 μg/mL) is not above 20 min. For the same compound, the “ATP efflux (intracellular vs extracellular ATP)” value with C. albicans GDH2346 [3] (32 μg/mL, 30 minutes) is listed as “almost all of the ATP from the cell was extracellular”. Moreover, the “concentration with detectable extracellular ATP levels” value in the test with C. albicans GDH2346 [3] (30 minutes of exposure) is 16 µg/mL. The “cells permeabilized (PI uptake)” value in the test on C. albicans GDH2346 [4] is reported as more than 75%. Moreover, the killing kinetics entry with C. albicans GDH2346 [2] is “cidal activity with rapid killing kinetics”.

Regarding `NCCCOc1cc(-c2cn(-c3cc(OCCCN)cc(OCCCN)c3)nn2)cc(-c2cn(-c3cc(OCCCN)cc(OCCCN)c3)nn2)c1` [Compound 137], the EC50 in the test on S. aureus 27660 is 25 µg/mL (≈ 34.3 µM); with K. pneumoniae 13883 it was more than 50 µg/mL; with E. faecalis 29212, 25 µg/mL (≈ 34.3 µM); with E. coli 25922, 50 µg/mL (≈ 68.5 µM); in the test with P. aeruginosa 10145, 50 µg/mL (≈ 68.5 µM). For the same compound, the IC50 (as a rule, the point on the concentration scale where inhibition reaches its midpoint) in [1] (setting [6]) was determined as 2.29 µg/mL (≈ 3.14 µM).

The record behind these values is patent publication US8895561B2, “Compounds and methods for treating candidiasis and aspergillus infections” (Cellceutix Corporation, priority 2012, dated 2014).
